Consider 45 compounds from patent publication US20160039825A1 (BIOGEN MA INC., priority 2013, published 2016).

Structures are written as SMILES.

The assay addresses T1, Human ATX protein (Homo sapiens, UniProt Q13822).
T1 construct: made in house
In words: Autotaxin (ATX) assay, FRET with FS-3 substrate. It is filed as biochemical. The settings on record: upper bound bins (no greater than 100, 250 or 500 nM); FS-3 2 μM, ATX 1.0 μg/mL. The method in brief:
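Hydrolysis of the FRET substrate FS-3 (2 μM final) unquenches fluorescein, read at excitation 485 nm and emission 538 nm after 2 h at room temperature, protected from light. Purified human ATX (1.0 μg/mL) and compound were first incubated for 30 min in pH 7.4 Tris/salt buffer containing 1 mg/mL fatty acid-free BSA.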

For orientation: IC50 means the concentration at which inhibition is half-maximal. Read a low IC50 as inhibition by little substance. Consider `CC(=O)Nc1cc2n(n1)CCCN(C(=O)OCc1cc(C(F)(F)F)cc(C(F)(F)F)c1)C2` [Example 337, 3,5-bis(trifluoromethyl)benzyl 2-acetamido-7,8-dihydro-4H-pyrazolo[1,5-a][1,4]diazepine-5(6H)-carboxylate], for which the IC50 is ≤ 100 nM. The figure for `O=C(OCc1cc(Cl)cc(C(F)(F)F)c1)N1CCCn2nc(C3CN4CCC[C@@H]4CO3)cc2C1` (single isomer, unassigned) [Example 252A] is ≤ 100 nM. The figure for `Cc1cc(COC(=O)N2CCCn3nc(C(=O)O)cc3C2)cc(C(F)(F)F)c1` [Example 109, 5-(((3-Methyl-5-(trifluoromethyl)benzyl)oxy)carbonyl)-5,6,7,8-tetrahydro-4H-pyrazolo[1,5-a][1,4]diazepine-2-carboxylic acid] is ≤ 100 nM; for `CCOC(=O)c1cc2n(n1)CCCN(C(=O)OCc1cc(Cl)cc(C(F)(F)F)c1)C2` [Example 404] it is ≤ 100 nM. Consider `O=C(OCc1cc(C(F)(F)F)cc(C(F)(F)F)c1)N1CCCn2nc(C(=O)N3CCNCC34CCC4)cc2C1` [Example 235], for which the IC50 is ≤ 100 nM. In the case of `Cc1noc(-c2cc3n(n2)CCCN(C(=O)OCc2cc(C(F)(F)F)cc(C(F)(F)F)c2)C3)n1` [Example 118, 3,5-Bis(trifluoromethyl)benzyl 2-(3-methyl-1,2,4-oxadiazol-5-yl)-7,8-dihydro-4H-pyrazolo[1,5-a][1,4]diazepine-5(6H)-carboxylate], the IC50 was ≤ 100 nM. `CCOC(=O)c1cc2n(n1)CC(O)CN(C(=O)OCc1cc(C(F)(F)F)cc(C(F)(F)F)c1)C2` (stereo not drawn) [Example 409]: the IC50 is ≤ 100 nM. Turning to `C[C@H]1CNC[C@H](C)N1C(=O)c1cc2n(n1)CCCN(C(=O)OCc1cc(C(F)(F)F)cc(C(F)(F)F)c1)C2` [Example 247], the 50% inhibitory concentration (IC50) was ≤ 100 nM. The figure for `O=C(OCc1cc(Cl)cc(C(F)(F)F)c1)N1CCCn2nc(C(O)C(F)(F)F)cc2C1` (stereo not drawn) [Example 286, 3-chloro-5-(trifluoromethyl)benzyl 2-(2,2,2-trifluoro-1-hydroxyethyl)-7,8-dihydro-4H-pyrazolo[1,5-a][1,4]diazepine-5(6H)-carboxylate] is ≤ 100 nM; for `N#CC1CN(C(=O)c2cc3n(n2)CCCN(C(=O)OCc2cc(C(F)(F)F)cc(C(F)(F)F)c2)C3)CCN1` (stereo not drawn) [Example 246] it is ≤ 100 nM; for `O=C(OCc1cc(Cl)cc(C(F)(F)F)c1)N1CCn2nc(C(=O)N3CC4CNCC4C3)cc2C1` (stereo not drawn) [Example 442] it is ≤ 100 nM. The figure for `CN1C2CCC1CN(C(=O)c1cc3n(n1)CCCN(C(=O)OCc1cc(Cl)cc(C(F)(F)F)c1)C3)C2` [Example 201] is ≤ 100 nM. Turning to `N#Cc1cc2n(n1)CCCN(C(=O)OCc1cc(F)cc(C(F)(F)F)c1)C2` [Example 129], the half-maximal inhibitory concentration (IC50) is ≤ 500 nM. The figure for `O=C(OCc1cc(C(F)(F)F)cc(C(F)(F)F)c1)N1CCCn2nc(NC3CCCCNC3)cc2C1` (stereo not drawn) [Example 326] is ≤ 100 nM; for `O=C(OCc1cc(C(F)(F)F)cc(C(F)(F)F)c1)N1CCCn2nc(N3CC4CCC(C3)N4)cc2C1` [Example 344] it is ≤ 250 nM; for `CN(C)C(=O)c1cc2n(n1)CCCN(C(=O)OCc1cc(Cl)cc(Cl)c1)C2` [Example 28, 3,5-Dichlorobenzyl 2-(dimethylcarbamoyl)-7,8-dihydro-4H-pyrazolo[1,5-a][1,4]diazepine-5(6H)-carboxylate] it is ≤ 100 nM. `O=C(OCc1cc(C(F)(F)F)cc(C(F)(F)F)c1)N1CCn2cc(C(F)(F)F)nc2C1` [Example 127, 3,5-Bis(trifluoromethyl)benzyl 2-(trifluoromethyl)-5,6-dihydroimidazo[1,2-a]pyrazine-7(8H)-carboxylate]: the IC50 is ≤ 100 nM.

`CC(=O)c1cc2n(n1)CCN(C(=O)OCc1cc(C(F)(F)F)cc(C(F)(F)F)c1)C2` [Example 401, 3,5-bis(trifluoromethyl)benzyl 2-acetyl-6,7-dihydropyrazolo[1,5-a]pyrazine-5(4H)-carboxylate]: the IC50 was ≤ 500 nM. Regarding `CC(c1cc2n(n1)CCCN(C(=O)OCc1cc(Cl)cc(Cl)c1)C2)N1C2CCCC1CCC2` (stereo not drawn) [Example 453], the IC50 is ≤ 250 nM. Turning to `CC1CN(CC(=O)c2cc3n(n2)CCCN(C(=O)OCc2cc(Cl)cc(C(F)(F)F)c2)C3)CC(C)O1` (stereo not drawn) [Example 269], the IC50 is ≤ 100 nM. The figure for `CN1CCN(C(=O)c2cc3n(n2)CCCN(C(=O)OCc2cc(Cl)cc(C(F)(F)F)c2)C3)C2(CCCC2)C1` [Example 232] is ≤ 100 nM; for `CC1(C)COCCN1CC(=O)c1cc2n(n1)CCCN(C(=O)OCc1cc(Cl)cc(C(F)(F)F)c1)C2` [Example 267] it is ≤ 100 nM.

With `O=C(OCc1cc(Cl)cc(C(F)(F)F)c1)N1CCn2nc(C(=O)N3CC4CCC(C3)N4)cc2C1` [Example 429], the IC50 was ≤ 100 nM.

For `COCc1cc2n(n1)CCCN(C(=O)OCc1cc(C(F)(F)F)cc(C(F)(F)F)c1)C2` [Example 285, 3,5-bis(trifluoromethyl)benzyl 2-(methoxymethyl)-7,8-dihydro-4H-pyrazolo[1,5-a][1,4]diazepine-5(6H)-carboxylate], the IC50 is ≤ 100 nM. As for `CN1CCN(C(=O)c2cc3n(n2)CCCN(C(=O)OCc2cc(C(F)(F)F)cc(C(F)(F)F)c2)C3)C2(CC2)C1` [Example 220], the half-maximal inhibitory concentration (IC50) was ≤ 100 nM. The figure for `O=C(CCc1cc(Cl)cc(Cl)c1)N1CCn2nc(C(=O)N3C4CCCC3CCC4)cc2C1` [Example 94, 1-(2-(9-Azabicyclo[3.3.1]nonane-9-carbonyl)-6,7-dihydropyrazolo[1,5-a]pyrazin-5(4H)-yl)-3-(3,5-dichlorophenyl)propan-1-one] is ≤ 100 nM; for `O=C(O)c1cc2n(n1)CCN(C(=O)OCc1cc(Cl)cc(C(F)(F)F)c1)C2` [Example 410, 5-(((3-chloro-5-(trifluoromethyl)benzyl)oxy)carbonyl)-4,5,6,7-tetrahydropyrazolo[1,5-a]pyrazine-2-carboxylic acid] it is ≤ 250 nM. The figure for `CCC1(CC)CNCCN1C(=O)c1cc2n(n1)CCCN(C(=O)OCc1cc(Cl)cc(C(F)(F)F)c1)C2` [Example 231] is ≤ 100 nM. For `O=C(CN1CC(C(=O)O)C1)c1cc2n(n1)CCCN(C(=O)OCc1cc(Cl)cc(C(F)(F)F)c1)C2` [Example 272], the concentration for half-maximal inhibition (IC50) is ≤ 100 nM.

For `Cc1nnc(-c2cc3n(n2)CCCN(C(=O)OCc2cc(C(F)(F)F)cc(C(F)(F)F)c2)C3)o1` [Example 119, 3,5-Bis(trifluoromethyl)benzyl 2-(5-methyl-1,3,4-oxadiazol-2-yl)-7,8-dihydro-4H-pyrazolo[1,5-a][1,4]diazepine-5(6H)-carboxylate], the half-inhibitory concentration (IC50) is ≤ 100 nM. The figure for `NC1CN(C(=O)c2cc3n(n2)CCN(C(=O)OCc2cc(C(F)(F)F)cc(C(F)(F)F)c2)C3)C1` [Example 424] is ≤ 100 nM. For `O=C(O)C1CC2CCCC(C1)N2C(=O)c1cc2n(n1)CCN(C(=O)OCc1cc(C(F)(F)F)cc(C(F)(F)F)c1)C2` (stereo not drawn) [Example 48, 9-(5-(((3,5-Bis(trifluoromethyl)benzyl)oxy)carbonyl)-4,5,6,7-tetrahydropyrazolo[1,5-a]pyrazine-2-carbonyl)-9-azabicyclo[3.3.1]nonane-3-carboxylic acid], the half-maximal inhibitory concentration (IC50) is ≤ 100 nM. The figure for `NC(C(=O)O)c1cc2n(n1)CCCN(C(=O)OCc1cc(C(F)(F)F)cc(C(F)(F)F)c1)C2` (stereo not drawn) [Example 390, 2-Amino-2-(5-(((3,5-bis(trifluoromethyl)benzyl)oxy)carbonyl)-5,6,7,8-tetrahydro-4H-pyrazolo[1,5-a][1,4]diazepin-2-yl)acetic acid] is ≤ 100 nM; for `O=C(OCc1cc(C(F)(F)F)cc(C(F)(F)F)c1)N1CCn2nc(C(=O)N3CCCCC3)cc2C1` [Example 493] it is ≤ 100 nM; for `CC1(C)COCCN1CC(=O)c1cc2n(n1)CCN(C(=O)OCc1cc(C(F)(F)F)cc(C(F)(F)F)c1)C2` [Example 260] it is ≤ 100 nM. The figure for `CC(c1cc2n(n1)CCN(C(=O)OCc1cc(C(F)(F)F)cc(C(F)(F)F)c1)C2)N1CC2CCC(C1)N2` (stereo not drawn) [Example 427] is ≤ 100 nM; for `O=C(O)c1cc2n(n1)CCCN(C(=O)COc1cc(C(F)(F)F)cc(C(F)(F)F)c1)C2` [Example 117, 5-(2-(3,5-Bis(trifluoromethyl)phenoxy)acetyl)-5,6,7,8-tetrahydro-4H-pyrazolo[1,5-a][1,4]diazepine-2-carboxylic acid] it is ≤ 500 nM.

For `O=C(OCc1cc(C(F)(F)F)cc(C(F)(F)F)c1)N1CCCn2nc(C3CCNC3)cc2C1` (stereo not drawn) [Example 384], the IC50 was ≤ 250 nM.

In the case of `O=C(OCc1cc(C(F)(F)F)cc(C(F)(F)F)c1)N1CCCn2nc(-c3nnn[nH]3)cc2C1` [Example 136, 3,5-Bis(trifluoromethyl)benzyl 2-(1H-tetrazol-5-yl)-7,8-dihydro-4H-pyrazolo[1,5-a][1,4]diazepine-5(6H)-carboxylate], the IC50 is ≤ 100 nM. For the compound `O=C(OCc1cc(C(F)(F)F)cc(C(F)(F)F)c1)N1CCn2nc(C(=O)N3CCNCC3)cc2C1` [Example 435], the IC50 is ≤ 100 nM. On to `C[C@@H]1CNC[C@@H](C)N1C(=O)c1cc2n(n1)CCCN(C(=O)OCc1cc(Cl)cc(C(F)(F)F)c1)C2` [Example 161], for which the IC50 was ≤ 100 nM. For the compound `O=C(NCCO)c1cc2n(n1)CCN(C(=O)OCc1cc(C(F)(F)F)cc(C(F)(F)F)c1)C2` [Example 460, 3,5-bis(trifluoromethyl)benzyl 2-((2-hydroxyethyl)carbamoyl)-6,7-dihydropyrazolo[1,5-a]pyrazine-5(4H)-carboxylate], the IC50 was ≤ 100 nM.

As to `O=C(OCc1cc(Cl)cc(C(F)(F)F)c1)N1CCn2nc(C(=O)N3CCNCC3)cc2C1` [Example 434], the IC50 was ≤ 100 nM. With `O=C(O)C1CN(C(=O)c2cc3n(n2)CCCN(C(=O)OCc2cc(Cl)cc(C(F)(F)F)c2)C3)CCN1` (stereo not drawn) [Example 227], the IC50 is ≤ 100 nM. The figure for `NCCNC(=O)c1cc2n(n1)CCN(C(=O)OCc1cc(C(F)(F)F)cc(C(F)(F)F)c1)C2` [Example 425] is ≤ 100 nM.
